Experiments:
in vitro = in vitro ADME, hog; details: pig, pH 7.2; tris buffer plus hog liver esterase, 30° C.
Procedure: (§1) PREPARATION OF TRIS BUFFER
(§2) 0.05 M tris buffer was made by dissolving 6.05 grams of tris-(hydroxymethyl)-methylamine in 1000 ml. of water, and adjusting the pH to 7.2 by the addition of 0.1 M HCl.
(§3) Standard solutions of 1×10^-4 M Compound A in analytical grade methanol (0.01 ml) were prepared, and tested in the simulated gastric and intestinal fluids, in tris buffer alone, in tris buffer with added hog liver esterase and also in serum. The solutions under test were incorporated in 1 ml. of each of the test fluids. A temperature of 30° C. was used for the assays involving the hog liver esterase, whereas a temperature of 37° C. was used for the assays involving the simulated gastric and intestinal fluids and the serum. After this, the mixture was allowed to stand and the supernatant liquid was spotted onto silica t.l.c. plates and developed in 90:10 chloroform/methanol. The mixture was then extracted with 5 mls of chloroform and the chloroform-containing mixture was filtered through phase-separating papers, which allow only the chloroform solution to pass through. The chloroform solution was also spotted onto silica t.l.c. plates and developed in 90:10 chloroform/methanol.

hog liver esterase = test: in vitro; format: in vitro ADME; details: 30° C.
Procedure: as §1, §2, §3

[1] = Hydrolysis stability in simulated gastric fluid; format: physicochemical
Procedure: In order first to evaluate the stability of Compound A in the gastro-intestinal tract, simulated gastric and intestinal fluids and other test fluids were prepared as follows:
PREPARATION OF SIMULATED GASTRIC FLUID
0.35 gram of sodium chloride, 0.5 gram of glycine and 94 ml of M hydrochloric acid were mixed, and the volume was then made up to 1000 ml with distilled water. The pH of this system was about 1.79.
as §3

[2] = tested on: yeast-inflamed hind-paw pain-threshold; test: Analgesic activity, Randall-Selitto test in rats; format: in vivo, female Charles River rats; details: for P of pain-threshold (t-test versus control): 2 millimoles/kg oral
Procedure: (C)--Investigation of Analgesic Activity in Rats
A control group received only the gum tragacanth vehicle.
In order to evaluate the effect of the treatment upon pain-thresholds, pressure was applied both to the injected hind-paw and to the other non-injected hind-paw. The pain-threshold was noted as the pressure at which the rat flinched, measured using an Ugo Basile "Analgesimeter" for both hind-paws of each rat at intervals of 1 hour, 3 hours, 5 hours and 22 hours after the administration, and expressed as the percentage of the pain-threshold pressure for the injected (and thus inflamed) hind-paw as against the non-injected (and thus healthy) hind-paw.

in vivo = details: mouse, in vivo, po
Procedure: (§4) (E)--Investigation of Acute Oral Toxicity in Mice
(§5) Charles River (CD-1 COBS) albino mice, 20-22 g in weight, were kept for some days in an air-conditioned animal house and fed with a standard diet (sterile VAR granules). They were fasted overnight before experiment, with water ad libitum. 15 Male mice and 15 female mice were used for each experiment.
(§6) N-Acetyl-para-aminophenol (NAPA) and N-acetyl-para-aminophenyl N'-acetyl-D,L-methionate (Compound A) were then administered to the mice, orally, as a suspension (shaken continuously with an electromagnetic agitator) in 5% gum arabic at a volume of 0.02 ml/g, either individually or in variously proportioned mixtures and at different dose levels, as shown in Table VII below.
(§7) A control group received only the 5% gum arabic vehicle.

[3] = tested on: Charles River (CD-1 COBS) albino mice; test: in vivo
Procedure: as §4, §5, §6, §7

[4] = Acute oral toxicity in rats; format: in vivo; details: rat, in vivo, po; for mortality at 24 h / mortality at 48 h / mortality at 72 h / mortality at 96 h / mortality at 120 h / mortality at 144 h / mortality at 168 h: Percentage Mortality
Procedure: (§8) (F)--Investigation of Acute Oral Toxicity in Rats
(§9) The investigation was carried out upon groups of 10 male and 10 female albino rats (Charles River CD-1 COBS) of 80-100 g body weight. […] Before the experiment they were fasted overnight, with water ad libitum. NAPA and Compound A were then administered orally by oesophageal intubation as suspensions (continuously shaken with an electromagnetic agitator) in 1% gum arabic at a volume of 2 ml/100 g body weight, and at dose levels of 1, 2, 4 and 8 g/kg. A control group received orally, under the same experimental conditions, merely 2 ml/100 g of the suspension vehicle. The rats were then kept under observation during seven days, while their behaviour patterns were observed and the mortality recorded

[5] = tested on: albino rats (Charles River CD-1 COBS); test: Acute oral toxicity in rats; format: in vivo
Procedure: as §8, §9

[6] = mouse, in vivo, po
Procedure: (A)--Investigation of Serum Concentrations in Mice
36 Charles River COBS mice (18 males and 18 females) weighing 30 g each were deprived of food for 16 hours before the trial but were given their usual drinking water. Three groups, each containing 6 males and 6 females, received a dosage of 1 ml/100 g body weight per mouse, orally by stomach tube, of a suspension in 1% gum tragacanth of respectively:
Group X: 500 mg/kg of N-acetyl-para-aminophenol
A blood sample was taken by throat-slitting from one male and one female from each Group at each study time, i.e. 1/2, 1, 2, 4 and 24 hours after the oral administration.
At times 1/2, 1, 2 and 4 hours, each serum sample was divided into three 0.1 ml trial samples for the following three determinations:

With CSCCC(NC(C)=O)C(=O)Oc1ccc(NC(C)=O)cc1 (racemic) [Compound A, N-acetyl-para-aminophenyl N'-acetyl-D,L-methionate] the half-life (in vitro) was ~475 min, the “effect of hog liver esterase on the rate of hydrolysis” value (hog liver esterase) was “no effect on the rate of hydrolysis” and the half-life ([1]; pH 1.79, simulated gastric fluid, pH about 1.79, 37° C.) was 2400 min. The rate of hydrolysis ([1]; simulated gastric juice, 37° C.) was “very slow”, the “Percentage Pain-Threshold (injected vs non-injected paw)” value ([2]; 1 millimole/kg oral (NAPA 151, A 324 mg/kg), 1 hr. (3.5 hrs. from yeast)) was 44 ± 3.8 Percentage and the “Percentage Pain-Threshold (injected vs non-injected paw)” value ([2]; 1 millimole/kg oral (NAPA 151, A 324 mg/kg), 3 hrs. (5.5 hrs. from yeast)) was 41 ± 2.9 Percentage. For the same compound, the “Percentage Pain-Threshold (injected vs non-injected paw)” value ([2]; 1 millimole/kg oral (NAPA 151, A 324 mg/kg), 5 hrs. (7.5 hrs. from yeast)) was 50 ±4.2 Percentage, the “Percentage Pain-Threshold (injected vs non-injected paw)” value ([2]; 1 millimole/kg oral (NAPA 151, A 324 mg/kg), 22 hrs. (24.5 hrs. from yeast)) was 50 ± 2.4 Percentage and the analgesic effect ([2]; 2 millimoles/kg level, oral) was “statistically-significant analgesic effect at the 2 millimoles/kg level, which is at least as great as N-acetyl-para-aminophenol (NAPA)”. The “Percentage Pain-Threshold (injected vs non-injected paw)” value ([2]; 2 millimoles/kg oral (NAPA 302, A 648 mg/kg), 1 hr. (3.5 hrs. from yeast)) was 53 ± 3.3 Percentage, the “Percentage Pain-Threshold (injected vs non-injected paw)” value ([2]; 2 millimoles/kg oral (NAPA 302, A 648 mg/kg), 3 hrs. (5.5 hrs. from yeast)) was 54 ±3.2 Percentage and the “Percentage Pain-Threshold (injected vs non-injected paw)” value ([2]; 2 millimoles/kg oral (NAPA 302, A 648 mg/kg), 5 hrs. (7.5 hrs. from yeast)) was 59 ± 2.7 Percentage. The “Percentage Pain-Threshold (injected vs non-injected paw)” value ([2]; 2 millimoles/kg oral (NAPA 302, A 648 mg/kg), 22 hrs. (24.5 hrs. from yeast)) was 54 ± 1.9 Percentage, the “P of pain-threshold (t-test versus control)” value ([2]; 1 hr.) was < 0.02 and the “P of pain-threshold (t-test versus control)” value ([2]; 3 hrs.) was < 0.02. The “P of pain-threshold (t-test versus control)” value ([2]; 5 hrs.) was < 0.01, the “P of pain-threshold (t-test versus control)” value ([2]; 22 hrs.) was < 0.01 and the LD50 at 24 h (in vivo) was ≥ 4000 mg/kg. The LD50 at 168 h (in vivo) was ≥ 4000 mg/kg, the behaviour / symptoms ([3]; mouse, in vivo) was “hypothermia, tremor, tail extension, epistaxis and acrocyanosis, followed by death” and the “LD50 compared with NAPA” value ([3]; oral, mice) was “several times greater than that of the well-tried analgesic NAPA”. For the same compound, the LD50 at 24 h [4] was > 8000 mg/kg, the LD50 at 168 h [4] was > 8000 mg/kg and the mortality at 24 h ([4]; 1000 mg/kg) was 0%. It also gave a mortality at 48 h ([4]; 1000 mg/kg) of 0%, a mortality at 72 h ([4]; 1000 mg/kg) of 0% and a mortality at 96 h ([4]; 1000 mg/kg) of 0%. It also gave a mortality at 120 h ([4]; 1000 mg/kg) of 0%, a mortality at 144 h ([4]; 1000 mg/kg) of 0% and a mortality at 168 h ([4]; 1000 mg/kg) of 0%. For the same compound, the mortality at 24 h ([4]; 2000 mg/kg) was 0%, the mortality at 48 h ([4]; 2000 mg/kg) was 0% and the mortality at 72 h ([4]; 2000 mg/kg) was 0%. For the same compound, the mortality at 96 h ([4]; 2000 mg/kg) was 0%, the mortality at 120 h ([4]; 2000 mg/kg) was 0% and the mortality at 144 h ([4]; 2000 mg/kg) was 0%. It also gave a mortality at 168 h ([4]; 2000 mg/kg) of 0%, a mortality at 24 h ([4]; 4000 mg/kg) of 0% and a mortality at 48 h ([4]; 4000 mg/kg) of 0%. It also gave a mortality at 72 h ([4]; 4000 mg/kg) of 0%, a mortality at 96 h ([4]; 4000 mg/kg) of 0% and a mortality at 120 h ([4]; 4000 mg/kg) of 0%. For the same compound, the mortality at 144 h ([4]; 4000 mg/kg) was 0%, the mortality at 168 h ([4]; 4000 mg/kg) was 0% and the mortality at 24 h ([4]; 8000 mg/kg) was 0%. It also gave a mortality at 48 h ([4]; 8000 mg/kg) of 0%, a mortality at 72 h ([4]; 8000 mg/kg) of 0% and a mortality at 96 h ([4]; 8000 mg/kg) of 0%. For the same compound, the mortality at 120 h ([4]; 8000 mg/kg) was 0%, the mortality at 144 h ([4]; 8000 mg/kg) was 0% and the mortality at 168 h ([4]; 8000 mg/kg) was 0%. For the same compound, the “toxicity compared with NAPA” value ([5]; oral, rats) was “far less toxic than NAPA”, the “mortality (in words)” value ([5]; oral, rats, 1-8 g/kg) was “no mortality was recorded at any of the different dose levels” and the “mortality (in words)” value ([5]; rat, in vivo, po) was “did not induce any mortality at dose levels up to 8 g/kg”. The “serum "total" or "enzymatic" NAPA profile” value [6] was “does not however give the acute peak observed at one-half an hour after the administration of NAPA+methionine”.
